Consider one compound from patent US11154619B2, “Liposomal compositions with light illumination-induced drug release” (Creighton University, priority 2017, dated 2021).

The assay deals with WI26-VA4 cells. The assay is described as follows: Doxorubicin cytotoxicity by MTT cell viability assay, liposomes with or without pre-illumination. The class given is cell-based. The note with it: total dose of 1 μM; co-incubated with cells for 4 hours; evaluated 48 hours after treatment; no illumination. The protocol: Studies were performed on the fluorescent marker- or drug-loaded liposomes described above diluted to a concentration of 0.2 mM by total lipids with or without the photosensitizer-peptide conjugate described above at 1:80 to 1:5 molar ratio to total lipids. Optionally, samples were also supplied with antioxidants/reducing agents or other additional substances at different concentrations. Samples were either illuminated as described below or kept for the same time period under different control conditions.
Illumination of prepared liposomes with or without photosensitizer-peptide conjugate was mostly preformed using a setup that included a halogen utility lamp, a 2-inch thick flowing water filter to cut infrared irradiation above 950 nm and a red optical cast plastic filter (EdmundOptics) to cut off light irradiation below 620 nm (FIG. 1). […]
Release of the drug substance (doxorubicin hydrochloride) from the liposomes was done by enhancement of its biological action (cytotoxicity) on cultured WI26-VA4 cells after pre-illuminating liposomes with or without photosensitizer-peptide conjugate in comparison to liposomes at the same dose without pre-illumination, co-incubated with cells for 4 hours. The extent of cell death was evaluated 48 hours after treatment using a MTT cell viability assay.
In general terms: Tetrazolium dyes change colour on reduction, which living cells bring about.

Counter-ions that a name gives are not always drawn.

For the compound `COc1cccc2c1C(=O)c1c(O)c3c(c(O)c1C2=O)C[C@@](O)(C(=O)CO)C[C@@H]3O[C@H]1C[C@H](N)[C@H](O)[C@H](C)O1` [doxorubicin hydrochloride], the cell death result is recorded as “about 60%”.
